{
  "source": "patent US12662458B2",
  "about": "“Solid forms of a compound” (Denali Therapeutics Inc., priority 2020, dated 2026)",
  "experiment": "Vacuum drying of Form B",
  "format": "physicochemical",
  "conditions": "vacuum drying at room temperature",
  "description": "A 1,4-dioxane solution of Form A was prepared by dissolving 20 mg in 0.2-1.0 mL of 1,4-dioxane until clear solution was obtained. Then, water was added while maintaining magnetic agitation until precipitate appeared. […] XRPD data was obtained on the wet-cake prior to drying.\nForm B can only be prepared in a location where Form C has rigorously been excluded, otherwise the conditions to prepare Form B (described above) will instead produce Form C, the most thermodynamically stable form identified.",
  "note": "Entries after “also recorded” stand apart in the source; their conditions may differ.",
  "data": [
    {"smiles": "O=C(COc1ccc(Cl)cc1)NC12CC(c3nnc([C@H]4C[C@@H](OC(F)(F)F)C4)o3)(C1)C2", "note": "[Form B, 2-(4-chlorophenoxy)-N-[3-[5-[cis-3-(trifluoromethoxy)cyclobutyl]-1,3,4-oxadiazol-2-yl]-1-bicyclo[1.1.1]pentanyl]acetamide]", "values": [
      {"measurement": "form after vacuum drying", "value": "converted to Form A; also recorded: desolvates to Form A"}
    ]}
  ]
}
